Reference: article PMC5063576, “High Potency VEGFRs/MET/FMS Triple Blockade by TAS-115 Concomitantly Suppresses Tumor Progression and Bone Destruction in Tumor-Induced Bone Disease Model with Lung Carcinoma Cells” (PLoS ONE, 2016)

Key:
[1] = test system: A549-Luc-BM1-implanted tibia; test: Bone morphometrical analyses by micro-CT; assay type: in vivo, BALB/c nude mice; conditions: for A549-Luc-BM1-induced changes in bone parameters (BV, TV, BMD, vBMD): micro-CT after 4 weeks dosing, TAS-115 200, cabozantinib 15, sunitinib 40, crizotinib 100 mg/kg oral, vs control
Protocol: On day 29, the mice were euthanized by cervical dislocation under isoflurane anesthesia, and subsequently the A549-Luc-BM1-implanted tibia was removed and was fixed in 4% paraformaldehyde solution. Micro-CT imaging was performed by using Rm_CT2 (Rigaku corporation, Tokyo, Japan) with the following parameters: 90 kV, 160 μA, 3 min exposure, 10 mm field of view (20 μm voxel size). After scanning, 3D reconstruction was performed to produce a series of cross-sectional images by using specific software (3D Viewer Version 3.00.01, Rigaku corporation). In addition, bone mineral density (BMD) and 3D morphometrical primary parameters, including total volume (TV) and bone volume (BV), were calculated by using bone microstructure software (TRI/3D-BON-FCS64, Ratoc System Engineering, Tokyo, Japan). Volumetric BMD (vBMD), which has been reported to be a good index of osteoporosis, was calculated from primary parameters using the following formula: vBMD = BMD × BV / TV.

[2] = test system: A549-Luc-BM1 cells in the mouse tibia; test: Tumor-induced bone disease model, intra-tibial A549-Luc-BM1, bioluminescence imaging; assay type: in vivo, BALB/c nude mice; conditions: for tumor growth inhibition percentage (TGI): day 28, 4 weeks, oral once daily TAS-115 200 mg/kg, cabozantinib 15 mg/kg, sunitinib 40 mg/kg, crizotinib 100 mg/kg, ZA 0.2 mg/kg s.c. twice weekly
Protocol: Tumor growth in the tibiae was monitored by bioluminescence imaging using an IVIS Lumina II Imaging System (PerkinElmer, MA). […] Images were analyzed using the Living Image 3.1 software (PerkinElmer). Total photon flux (TP) was calculated by summation of the photon flux of ventral and right lateral images. One week post tumor implantation, 8–9 animals were allocated to each experimental group by a stratified randomization method with SAS version 9.2 (SAS Institute Japan, Tokyo, Japan) using TP as an allocation parameter, following which drug treatment was then started. […] The doses of each drug were selected based on the maximum tolerated dose (MTD) in in-house studies (data not shown). […] Zoledronic acid (ZA) was subcutaneously injected twice weekly for 4 weeks at a dose of 0.2 mg/kg, which was a previously reported efficacious dose. The allocation day was set as day 0, and drug administration was initiated from day 1. As an indicator of changes in tumor growth during the dosing period, relative total photon flux (RTP), was calculated according to the following formula: RTPday n = (TP on each measurement day) / (TPday 0) × 100. TPday 0 is the TP on the allocation day.

[3] = Body weight change in the bone disease model; assay type: in vivo, BALB/c nude mice; conditions: 4 weeks of treatment; TAS-115 200 mg/kg, crizotinib 100 mg/kg, sunitinib 40 mg/kg with crizotinib 100 mg/kg, oral once daily
Protocol: Changes in body weight (BW) during the dosing period were determined using body weight change (BWC; %) as an indicator, which was calculated using the following formula: BWC; % = 100 × ((BW on each measurement day)–(BWday 0)) / (BWday 0). BWday 0 is the BW on the allocation day. The schedule for the in vivo study is depicted in the Supporting Information (S1 Fig).

[4] = test system: A549-Luc-BM1-implanted tibiae; test: CD31 staining, microvessel density in bone lesion; assay type: in vivo, BALB/c nude mice; conditions: 2 weeks oral; TAS-115 100 mg/kg, cabozantinib 15, crizotinib 100, sunitinib 40 mg/kg; vs control
Protocol: (§1) On day 15, the mice were euthanized by cervical dislocation under isoflurane anesthesia, and their tibiae were collected. For CD31 staining, frozen sections (3 μm thick) were prepared using Kawamoto’s film method. Purified Rat Anti-Mouse CD31 (1:100, BD Pharmingen^TM) was detected using Simple Stain^TM Mouse MAX PO (Rat) (Nichirei) and 3,3’-diaminobenzidine (Dako, Glostrup, Denmark). For Ki-67 and TRAP staining, formalin-fixed paraffin-embedded sections (2 μm thick) were prepared. Anti-human Ki-67 Rabbit Monoclonal Antibody (1:50, Epitomics) was detected using the EnVisionTM^+ System (Dako). TRAP staining was performed using the TRAP/ALP Stain Kit (Wako Pure chemical Industries, Ltd.). To quantify each staining, whole slides were scanned under 20× magnification with the Aperio Scan-Scope XT Slide Scanner (Aperio Technologies, Inc., CA). To quantify CD31-positive microvessels as microvessel density (MVD, number/mm^2), four fields of tumor area per section excluding bone and necrotic tissue were analyzed by using Image-Pro Plus (Media Cybernetics, Inc., Carlsbad, CA). The mean values of the four areas were considered as the MVD of each animal. […] Ki-67-positive cells and total tumor cells were counted by using Image-Pro Plus. The Ki-67 index is expressed as a percentage (the number of Ki-67-positive tumor cells / the total number of the tumor cells × 100). The numbers of TRAP-positive osteoclasts were counted, and are expressed as the TRAP-positive osteoclast labeling index, (the number of TRAP-positive cells / the length of the boundary between tumor and trabecular bone (number/mm)). Cells that were TRAP-positive, had more than one nucleus, and were found on the surface of the bone, were identified as osteoclasts. The boundary length was calculated by Image-Pro Plus. All histopathological analyses were conducted in a blinded manner.

[5] = test system: FMS, ERK1/2 and AKT phosphorylation in MDBMs; test: In vitro MDBM signaling, M-CSF-stimulated FMS phosphorylation; assay type: cell-based, mouse; conditions: Western blotting, cabozantinib, crizotinib at 0.3 μM, sunitinib positive control compared with TAS-115
Protocol: For analysis of the expression and phosphorylation levels of FMS, MET and VEGFR2, MDBMs were cultured with hM-CSF (20000 U/mL) for 4 days (400000 cells/dish in Suspension Culture Dishes (Corning Inc., NY). The phosphorylation levels of FMS and downstream signaling molecules were then analyzed in these MDBMs following incubation for 1 hr with test compounds at the indicated concentration. The phosphorylation of MET or VEGFR2 was analyzed in these MDBMs following stimulation with rhHGF (100 ng/mL, 10 min) or rhVEGF (100 ng/mL, 5 min), respectively. After incubation, the MDBMs were harvested, the cells were lysed and target signaling proteins were detected by immunoblotting. For analysis of VEGFR2 and its phosphorylated form, the lysate was immunoprecipiated with an anti-VEGFR antibody prior to immunoblotting.

A549-Luc-BM1 cells = test: Proliferation of A549-Luc-BM1 cells (CellTiter-Glo); assay type: cell-based; conditions: Homo sapiens, 72 hr post drug addition, read-out: 50% growth inhibitory concentration (GI50) for A549-Luc-BM1 cells
Protocol: Supplementary file pone.0164830.s002.tif: S2 Fig The effect of TAS-115 on the proliferation of A549-Luc-BM1 cells. A549-Luc-BM1 cells were seeded on 96 well plates at a density of 10^3 cells/well in RPMI1640 containing 10% FBS. […] At 72 hr post drug addition, cell viability was determined using CellTiter-Glo^TM. The 50% growth inhibition (GI50) values were determined using SAS version 9.2. (TIF) Click here for additional data file.

[6] = test system: M-CSF dependent bone marrow macrophages (MDBMs); test: In vitro osteoclast differentiation assay (TRAP activity); assay type: cell-based, mouse; conditions: MDBMs with hM-CSF and rhsRANKL for 4 days
Protocol: To prepare macrophage colony-stimulating factor (M-CSF) dependent bone marrow macrophages (MDBMs), bone marrow cells were obtained from the femurs of male BALB/c mice (CLEA Japan) and adherent cells were cultured with human M-CSF (hM-CSF; 10000 U/mL) for 6 days. MDBMs were collected and cultured with hM-CSF (10000 U/mL) and recombinant human soluble RANKL (rhsRANKL)-GST (5 nM) for 4 days (25000 cells/well in a 96 well flat plate) for induction of differentiation into osteoclasts. Test compounds were then added to the culture media at the indicated concentration. TRAP activities were measured using the commercially available TRACP and ALP Assay Kit (TAKARA BIO INC).

[7] = molecular target: T1, Recombinant human FMS dephosphorylated with lambda phosphatase (dephospho-rhFMS) (Homo sapiens, UniProt P07333); test: In vitro kinase assay, recombinant dephospho-FMS (LANCE Ultra TR-FRET); assay type: biochemical; conditions: 100 μM ATP
T1 sequence (P07333 538-972): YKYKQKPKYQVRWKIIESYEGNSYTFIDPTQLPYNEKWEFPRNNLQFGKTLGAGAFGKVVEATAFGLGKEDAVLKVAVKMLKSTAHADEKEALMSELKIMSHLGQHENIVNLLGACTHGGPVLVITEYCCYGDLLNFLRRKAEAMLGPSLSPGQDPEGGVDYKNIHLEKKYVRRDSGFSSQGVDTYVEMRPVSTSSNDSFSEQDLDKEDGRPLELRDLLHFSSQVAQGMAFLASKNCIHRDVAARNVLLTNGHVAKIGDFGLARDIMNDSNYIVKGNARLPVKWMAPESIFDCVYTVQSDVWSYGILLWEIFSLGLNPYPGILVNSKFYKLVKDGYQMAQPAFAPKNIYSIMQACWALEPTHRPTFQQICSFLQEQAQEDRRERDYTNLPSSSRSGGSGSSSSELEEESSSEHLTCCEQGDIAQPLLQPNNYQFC
Protocol: Enzyme inhibition studies were performed using LANCE® Ultra TR-FRET assay technology. Briefly, 0.03 μg/mL dephospho-rhFMS and 100 nM ULightTM-poly GT (4:1) (PerkinElmer) were mixed and incubated for 40 min at 25°C in 10 μL of reaction mixture containing 100 μM ATP, 15 mM tris (hydroxymethyl) aminomethane (Tris (pH 7.5)), 0.01% (v/v) Tween 20, 5 mM MgCl2, 2 mM dithiothreitol and various concentrations of the test compound. […] By referring to the TR-FRET signals of positive (no inhibitor) and negative (EDTA was added before the reaction was started) control wells, the percent inhibition of each well was calculated and the half-maximal inhibitory concentration (IC50) value was determined using a four-parameter sigmoidal equation. The assay of MET and VEGFR2 kinase activity was performed as described previously.

[8] = test system: TRAP-positive osteoclasts at tumor-bone boundary; test: TRAP staining of A549-Luc-BM1-implanted tibiae, osteoclast number; assay type: in vivo, BALB/c nude mice; conditions: 2 weeks oral; TAS-115 200, cabozantinib 15, sunitinib 40, crizotinib 100 mg/kg, combination; vs control
Protocol: as §1, with “CA).” for “CA). The mean values of the four areas were considered as the MVD of each animal.”, “The numbers of TRAP-positive osteoclasts were counted, and are expressed as the TRAP-positive osteoclast labeling index, (the number of TRAP-positive cells / the length of the boundary between tumor and trabecular bone (number/mm)). Cells that were TRAP-positive, had more than one nucleus, and were found on the surface of the bone, were identified as osteoclasts.” left out, “All histopathological analyses were conducted in a blinded manner.” left out

| SMILES | total volume (TV) compared with the control group ([1]; micro-CT, ZA 0.2 mg/kg s.c. twice weekly for 4 weeks) | BMD, BV, and vBMD compared with control ([1]; micro-CT, ZA 0.2 mg/kg s.c. twice weekly for 4 weeks, each value higher than normal group) | tumor growth inhibition percentage (TGI) [2] | effect on body weight [3] | A549-Luc-BM1-induced changes in bone parameters (BV, TV, BMD, vBMD) [1] | microvessel density (MVD) within the tumor area in the bone lesion [4] | inhibition of M-CSF-stimulated phosphorylation of FMS, ERK1/2 and AKT (in words) [5] | effect on tumor growth in the tibia (bioluminescence) ([2]; crizotinib 100 mg/kg oral once daily for 4 weeks) | GI50 (A549-Luc-BM1 cells) | concentration that potently inhibited / markedly affected RANKL and M-CSF-induced mouse osteoclast formation [6] | IC50 [7] | number of TRAP-positive osteoclasts at tumor-bone boundary [8] |
| --- | --- | --- | --- | --- | --- | --- | --- | --- | --- | --- | --- | --- |
| O=P(O)(O)C(O)(Cn1ccnc1)P(=O)(O)O [ZA, zoledronic acid] | significantly decreased | significantly increased | 27% | – | – | – | – | – | – | – | – | – |
| C[C@@H](Oc1cc(-c2cnn(C3CCNCC3)c2)cnc1N)c1c(Cl)ccc(F)c1Cl [Crizotinib] | – | – | – | did suppress body weight gain | did not affect any changes in the parameters | did not affect | moderate | did not impact on tumor growth at all | 1100 nM | 1 µM | – | – |
| CCN(CC)CCNC(=O)c1c(C)[nH]c(/C=C2\C(=O)Nc3ccc(F)cc32)c1C [Sunitinib] | – | – | 75% | – | significantly inhibited A549-Luc-BM1-induced changes in BV and TV, but not in BMD or vBMD | significantly reduced | comparable | – | – | – | – | – |
| COc1cc2nccc(Oc3ccc(NC(=O)C4(C(=O)Nc5ccc(F)cc5)CC4)cc3)c2cc1OC [Cabozantinib] | – | – | 73% | – | significantly suppressed all of the changes | significantly reduced | moderate | – | – | – | 79 nM | did not affect |
